Test results taken from patent US7166296B2, “Pharmaceutical formulations and ligands for use therein; mimetics for UEA-1” (Sarlan, Ltd., priority 2001, dated 2007).
Values after ≈ are worked out from the molar mass of the structure shown. Structures can show the parent of a compound that is named as a salt. Non-standard residues stand in square brackets, D forms with d. Residues, ends and D or L forms follow the SMILES beside them. *: point of attachment. Galloyl = O=C(c1cc(O)c(O)c(O)c1)*

Assays:
[1] = test system: UEA-1 binding sites on Caco-2 cell membrane preparations; assay: Two tier competition assay: compound incubated alone with membranes, biotinylated UEA-1 added in next step; parameters: species or system human; details: for Av % Inhibition / Avg % Inhibition: Two Tier Assay; for Av % Inhibition: library MSI 22; for Avg % Inhibition: library MSI 26; for IC 50 (ug/ml) 2nd tier / IC50: Table 8, galloyl constructs; for IC50: read-out: IC 50 (uM) 2nd tier
Protocol: (§1) The epithelial cell binding ability of compounds and mixtures obtained from synthetic combinatorial libraries was determined by competition assays. These assays were set up to measure the inhibition of binding of biotinylated UEA-1 to membrane preparations of the epithelial cell line Caco-2 (colon carcinoma cells-2), by compounds and mixtures of the combinatorial libraries. This cell line is a conventional model for epithelial cells.
(§2) Two competition inhibition assays were used in this case, namely single tier and two tier assays. These assays differed from each other in that in the single tier assay, the mixtures/compounds and the biotinylated UEA-1 were incubated together with the Caco-2 cell membrane preparations, while in case of the two-tier assay, the mixture/compounds were allowed to incubate alone with the cell membranes in the absence of biotinylated UEA-1, which was added in the next step. Addition of the extra step in the two-tier assay was to ensure that the compounds inhibiting the binding of biotinylated UEA-1 to the Caco-2 cell membranes were doing so by themselves binding to surface receptors on the Caco-2 cells and not to the biotinylated UEA-1. Each assay will be described in detail.
(§3) • 1. Confluent Caco-2 cell monolayers (grown in 75 cm^2 flasks for up to 1 week at 37° C. and 5% CO2) were washed twice in Dulbecco's PBS (DPBS). • 2. Cell monolayers were treated with 10 mM EDTA-DPBS for 5–10 min at 37° C. and cells were harvested by centrifugation at 1000 rpm for 5 min. • 3. Cells were washed 3 times in DPBS. • 4. […] The cells were homogenised for 30 sec. • 6. The homogenates were centrifuged in hard walled tubes at 40,000 rpm for 45 min at 4° C. • 7. […] The supernatant was removed and stored on ice. The procedure was repeated adding the second supernatant to the first. • 8. The protein concentration was determined using e.g. a Bio-Rad protein assay. • 9. All fractions were stored at −80° C. prior to use. Single Tier Assays: • 1. 96-well microtiter plates were coated with membrane preparations of Caco-2 cells either by allowing them to incubate on the plates for 2½ hours at room temperature or by incubating them overnight at 4° C. 100 μl of 10 μg/ml (in 0.05 M carbonate buffer, pH 9.6) of membrane preparation was added to each well. • 2. The plates were flicked out, patted dry and blocked with bovine serum albumin (BSA)/DPBS (200 μl/well) for 1 to 4 hours at room temperature after which they were washed three times in water. • 3. […] Control wells were also set up in which the Caco-2 cell membrane preparations were incubated with unconjugated UEA-1. […] Following overnight incubation the plates were washed thoroughly (3–6 times). The plates were flicked out, patted dry and biotinylated UEA-1 was detected with commercial Streptavidin conjugated to horseradish peroxidase (HRP) (CalBiochem). […] The plates were left to incubate for an hour at room temperature. • 6. The plates were then washed 3–6 times and the biotin-streptavidin binding was detected by adding an HRP substrate OPD (orthophenyl diamine) to each well. 100 μl/well of this substrate at a final concentration of 1.6 mg/ml was added to each well. Before adding to the wells, this substrate was activated by addition of 50 μl of 3% H2O2 per plate and the reaction was allowed to develop in the dark. • 7. The reaction was stopped by adding 50 μl of 4 N H2SO4 to each well after approximately 5–10 minutes or when sufficient colour had developed. The OD490 (absorbance at 490 nm) of each well was measured using a conventional 96 well plate reading spectrophotometer. Two Tier Assays: • 1. 96 well plates were coated with Caco-2 cell membrane preparations in the same manner as described in the single tier assay. • 2. […] 100 μl at these final concentrations were added to each well. • 4. The plates were then left to incubate overnight, a step that would allow the mixtures and compounds to interact with the Caco-2 cell membranes without the presence of the competitor (biotinylated UEA-1) itself. • 5. […]

[2] = test system: UEA-1 binding sites on Caco-2 cell membrane preparations; assay: Single tier competition assay: inhibition of biotinylated UEA-1 binding, compound and biotinylated UEA-1 incubated together; parameters: species or system human; details: for Av % Inhibition / Avg % Inhibtion: Single Tier Assay; for Av % Inhibition: library MSI 22; for Avg % Inhibtion: library MSI 26; for IC 50 (ug/ml) 1st tier / IC50: Table 8, galloyl constructs; for IC50: read-out: IC 50 (uM) 1st tier (converted)
Protocol: as §1, §2, §3

Structure (SMILES)	Av % Inhibition ([1]; 62.5 μg/ml)	Av % Inhibition ([1]; 250 μg/ml)	Av % Inhibition ([2]; 62.5 μg/ml)	Av % Inhibition ([2]; 250 μg/ml)	IC 50 (ug/ml) 2nd tier [1]	IC50 [1]	IC 50 (ug/ml) 1st tier [2]	IC50 [2]	also measured
CNC[C@@H](Cc1ccc2ccccc2c1)N(C)C[C@H](NC(=O)c1cc(O)c(O)c(O)c1)C(C)C [D-Napala, D-Val, Gallic Acid]	24.2%	46.9%	4.7%	26.8%	–	–	–	–	–
CNC[C@@H](Cc1ccc2ccccc2c1)N(C)C[C@H](Cc1ccc(Cl)cc1)NC(=O)c1cc(O)c(O)c(O)c1 [D-Napala, L-pCl-Phe, Gallic Acid]	23.4%	43.3%	−14.7%	7.4%	–	–	–	–	–
CCC[C@H](CNC)N(C)C[C@H](NC(=O)c1cc(O)c(O)c(O)c1)C(C)C [D-Nve, D-Val, Gallic Acid]	12.1%	29.8%	13.7%	46%	–	–	–	–	–
CCC[C@H](CNC)N(C)C[C@@H](CC1CCCCC1)NC(=O)c1cc(O)c(O)c(O)c1 [D-Nve, D-chAla, Gallic Acid]	20.6%	48.5%	22.0%	47.8%	–	–	–	–	–
CCOc1ccc(C[C@H](CNC)N(C)C[C@@H](CCCNC(=N)NS(=O)(=O)c2ccc(C)cc2)NC(=O)c2cc(O)c(O)c(O)c2)cc1 [D-Tyr (Et), D-Arg(Tos), Gallic Acid]	30%	61%	27.2%	48%	–	–	–	–	–
CCOc1ccc(C[C@H](CNC)N(C)C[C@H](CC2CCCCC2)NC(=O)c2cc(O)c(O)c(O)c2)cc1 [D-Tyr (Et), L-chAla, Gallic Acid]	31.8%	52.7%	8.5%	33.3%	–	–	–	–	–
COc1cc(C(=O)OCCCN2CCCN(CCCOC(=O)c3cc(OC)c(OC)c(OC)c3)CC2)cc(OC)c1OC [Dilazep dihydrochloride, reference compound]	–	–	–	–	–	–	–	–	Avg % Inhibition ([1]; 62.5 μg/ml): −25%; Avg % Inhibition ([1]; 250 μg/ml): −25%; Avg % Inhibtion ([2]; 62.5 μg/ml): 14.7%; Avg % Inhibtion ([2]; 250 μg/ml): 10.4%
Oc1cc(O)c2c(c1)O[C@H](c1cc(O)c(O)c(O)c1)[C@H](O)C2 [Epigallocatechin, reference compound]	–	–	–	–	–	–	–	–	Avg % Inhibition ([1]; 62.5 μg/ml): −12%; Avg % Inhibition ([1]; 250 μg/ml): −10%; Avg % Inhibtion ([2]; 62.5 μg/ml): 10.1%; Avg % Inhibtion ([2]; 250 μg/ml): 0%
O=C(O[C@@H]1Cc2c(O)cc(O)cc2O[C@H]1c1cc(O)c(O)c(O)c1)c1cc(O)c(O)c(O)c1 [Gallocatechin gallate, reference compound]	–	–	–	–	–	–	–	–	Avg % Inhibition ([1]; 62.5 μg/ml): 7%; Avg % Inhibition ([1]; 250 μg/ml): 14.1%; Avg % Inhibtion ([2]; 62.5 μg/ml): 54.6%; Avg % Inhibtion ([2]; 250 μg/ml): 33.6%
CNC[C@H](Cc1ccc2ccccc2c1)N(C)C[C@@H](Cc1ccc2ccccc2c1)NC(=O)c1cc(O)c(O)c(O)c1 [L-NapAla, D-Napala, Gallic Acid]	22.0%	44.6%	−3%	7%	–	–	–	–	–
CNC[C@H](Cc1ccc2ccccc2c1)N(C)C[C@H](Cc1ccc(Cl)cc1)NC(=O)c1cc(O)c(O)c(O)c1 [L-NapAla, L-pCl-Phe, Gallic Acid]	26.7%	54.7%	31.5%	46.9%	–	–	–	–	–
CCCCCCCCCCCCOC(=O)c1cc(O)c(O)c(O)c1 [Lauryl gallate, reference compound]	–	–	–	–	–	–	–	–	Avg % Inhibition ([1]; 62.5 μg/ml): 20.4%; Avg % Inhibition ([1]; 250 μg/ml): 47.9%; Avg % Inhibtion ([2]; 62.5 μg/ml): 39.1%; Avg % Inhibtion ([2]; 250 μg/ml): 22.5%
CC(=O)N[C@H](CCCCNC(=O)c1cc(O)c(O)c(O)c1)C(=O)N[C@H](CCCCNC(=O)c1cc(O)c(O)c(O)c1)C(=O)N[C@H](CCCCNC(=O)c1cc(O)c(O)c(O)c1)C(=O)N[C@H](CCCCNC(=O)c1cc(O)c(O)c(O)c1)C(=O)N[C@H](CCCCNC(=O)c1cc(O)c(O)c(O)c1)C(N)=O [MSI 30 #8] (Ac-[dK](Galloyl)[dK](Galloyl)[dK](Galloyl)[dK](Galloyl)[dK](Galloyl)-NH2)	–	–	–	–	15 µg/mL (≈ 10.3 µM)	10 µM	70 µg/mL (≈ 47.9 µM)	48 µM	–
NC(=O)[C@@H](CCCCNC(=O)c1cc(O)c(O)c(O)c1)NC(=O)[C@@H](CCCCNC(=O)c1cc(O)c(O)c(O)c1)NC(=O)[C@@H](CCCCNC(=O)c1cc(O)c(O)c(O)c1)NC(=O)[C@@H](CCCCNC(=O)c1cc(O)c(O)c(O)c1)NC(=O)[C@@H](CCCCNC(=O)c1cc(O)c(O)c(O)c1)NC(=O)c1cc(O)c(O)c(O)c1 [MSI 30 #10] (Galloyl-[dK](Galloyl)[dK](Galloyl)[dK](Galloyl)[dK](Galloyl)[dK](Galloyl)-NH2)	–	–	–	–	5 µg/mL (≈ 3.18 µM)	3 µM	23 µg/mL (≈ 14.6 µM)	14 µM	–
CC(=O)N[C@H](CCCCNC(=O)c1cc(O)c(O)c(O)c1)C(=O)N[C@H](CCCCNC(=O)c1cc(O)c(O)c(O)c1)C(=O)N[C@H](CCCCNC(=O)c1cc(O)c(O)c(O)c1)C(=O)N[C@H](CCCCNC(=O)c1cc(O)c(O)c(O)c1)C(=O)N[C@H](CCCCNC(=O)c1cc(O)c(O)c(O)c1)C(=O)N[C@H](CCCCNC(=O)c1cc(O)c(O)c(O)c1)C(N)=O [MSI 30 #11]	–	–	–	–	2 µg/mL (≈ 1.15 µM)	1 µM	13 µg/mL (≈ 7.47 µM)	7 µM	–
CC(=O)N[C@H](CCCCNC(=O)c1cc(O)c(O)c(O)c1)C(=O)N[C@H](CCCCNC(=O)c1cc(O)c(O)c(O)c1)C(=O)N[C@H](CCCCNC(=O)c1cc(O)c(O)c(O)c1)C(=O)N[C@H](CCCCNC(=O)c1cc(O)c(O)c(O)c1)C(=O)N[C@H](CCCCNC(=O)c1cc(O)c(O)c(O)c1)C(=O)N[C@H](CCCCNC(=O)c1cc(O)c(O)c(O)c1)C(=O)N[C@H](CCCCNC(=O)c1cc(O)c(O)c(O)c1)C(N)=O [MSI 30 #14] (Ac-[dK](Galloyl)[dK](Galloyl)[dK](Galloyl)[dK](Galloyl)[dK](Galloyl)[dK](Galloyl)[dK](Galloyl)-NH2)	–	–	–	–	9 µg/mL (≈ 4.45 µM)	4 µM	17 µg/mL (≈ 8.41 µM)	8 µM	–
NC(=O)[C@@H](CCCCNC(=O)c1cc(O)c(O)c(O)c1)NC(=O)[C@@H](CCCCNC(=O)c1cc(O)c(O)c(O)c1)NC(=O)[C@@H](CCCCNC(=O)c1cc(O)c(O)c(O)c1)NC(=O)[C@@H](CCCCNC(=O)c1cc(O)c(O)c(O)c1)NC(=O)[C@@H](CCCCNC(=O)c1cc(O)c(O)c(O)c1)NC(=O)[C@@H](CCCCNC(=O)c1cc(O)c(O)c(O)c1)NC(=O)[C@@H](CCCCNC(=O)c1cc(O)c(O)c(O)c1)NC(=O)c1cc(O)c(O)c(O)c1 [MSI 30 #16] (Galloyl-[dK](Galloyl)[dK](Galloyl)[dK](Galloyl)[dK](Galloyl)[dK](Galloyl)[dK](Galloyl)[dK](Galloyl)-NH2)	–	–	–	–	8 µg/mL (≈ 3.75 µM)	4 µM	19 µg/mL (≈ 8.92 µM)	9 µM	–
NC(=O)C(CCCCNC(=O)C(CCCCNC(=O)C(CCCCNC(=O)c1cc(O)c(O)c(O)c1)NC(=O)c1cc(O)c(O)c(O)c1)NC(=O)C(CCCCNC(=O)c1cc(O)c(O)c(O)c1)NC(=O)c1cc(O)c(O)c(O)c1)NC(=O)C(CCCCNC(=O)C(CCCCNC(=O)c1cc(O)c(O)c(O)c1)NC(=O)c1cc(O)c(O)c(O)c1)NC(=O)C(CCCCNC(=O)c1cc(O)c(O)c(O)c1)NC(=O)c1cc(O)c(O)c(O)c1 (stereo not drawn) [MSI 30 #17]	–	–	–	–	1st tier = 52nd tier = 5 ug/ml	2 µM	1st tier = 52nd tier = 5 ug/ml	2 µM	–
